Measured values from ChEMBL document CHEMBL6096648, “Discovery of phenazine derivatives as a new class of non-classical ferroptosis inhibitors and efficacy evaluation on a mouse model of liver injury” (Eur J Med Chem, 2025).
The source made the active and inactive calls. No cut-off for these calls is given here.

Columns and labels:
[1] = system: ES-2; experiment: Inhibition of erastin-induced ferroptosis in human ES2 cells assessed as increase in cell viability incubated for 48 hrs in presence of erastin by MTT assay; assay type: functional, cell-based; conditions: ES-2, 48 h
[2] = system: LX-2; experiment: Inhibition of erastin-induced ferroptosis in human LX2 cells assessed as increase in cell viability incubated for 48 hrs in presence of erastin by MTT assay; assay type: functional, cell-based; conditions: LX-2, 48 h
[3] = Metal chelating activity assessed as compound-Fe2+ complex formation at 10 uM incubated for 5 mins by ferrozine-based colorimetric assay
[4] = Antioxidant activity assessed as DPPH radical scavenging activity at 1 to 50 uM incubated for 10 mins by DPPH assay; assay type: functional; conditions: dose 1-50 µM
[5] = system: ES-2; experiment: Inhibition of staurosporine-induced apoptosis in human ES2 cells assessed as cell viability at 10 uM incubated for 24 hrs in presence of staurosporine by MTT assay; assay type: functional, cell-based
[6] = system: HT-29; experiment: Inhibition of TNF-alpha/Smac-mimetic/Z-VAD-FMK-induced necrosis in human HT-29 cells assessed as cell viability at 10 uM incubated for 24 hrs in presence of TNF-alpha/Smac-mimetic/Z-VAD-FMK by MTT assay; assay type: functional, cell-based
[7] = system: THP-1; experiment: Inhibition of LPS/nigericin-stimulated pyroptosis in PMA-differentiated human THP-1 cells assessed as cell viability at 10 uM treated with LPS for 4 hrs followed by incubation with compound and nigericin for 30 mins by MTT assay; assay type: functional, cell-based
[8] = system: ES-2; experiment: Inhibition of erastin-induced ferroptosis in human ES2 cells assessed as inhibition of lipid peroxidation by measuring decrease in MDA content at 0.01 uM measured after 8 to 10 hrs; assay type: functional, cell-based; conditions: time 8-10 hrs
[9] = system: ES-2; experiment: Inhibition of erastin-induced ferroptosis in human ES2 cells assessed as increase in intracellular GSH content at 0.01 to 1 uM measured after 8 to 10 hrs; assay type: functional, cell-based; conditions: dose 0.01-1 µM, time 8-10 hrs
[10] = system: ES-2; experiment: Inhibition of erastin-induced ferroptosis in human ES2 cells assessed as reduction in cytosolic ROS accumulation at 0.01 to 1 uM measured after 8 to 10 hrs by DCFH-DA staining based fluorescence analysis; assay type: functional, cell-based; conditions: dose 0.01-1 µM, time 8-10 hrs
[11] = system: ES-2; experiment: Inhibition of erastin-induced ferroptosis in human ES2 cells assessed as GPX4 protein expression at 0.01 to 1 uM incubated for 8 to 10 hrs by western blot analysis; assay type: functional, cell-based; conditions: dose 0.01-1 µM, time 8-10 hrs
[12] = system: ES-2; experiment: Inhibition of erastin-induced ferroptosis in human ES2 cells assessed as xCT protein expression at 0.01 to 1 uM incubated for 8 to 10 hrs by western blot analysis; assay type: functional, cell-based; conditions: dose 0.01-1 µM, time 8-10 hrs
[13] = system: ES-2; experiment: Inhibition of erastin-induced ferroptosis in human ES2 cells assessed as NRF2 protein expression at 0.01 to 1 uM incubated for 8 to 10 hrs by western blot analysis; assay type: functional, cell-based; conditions: dose 0.01-1 µM, time 8-10 hrs
[14] = system: ES-2; experiment: Inhibition of erastin-induced ferroptosis in human ES2 cells assessed as FACL4 protein expression at 0.01 to 1 uM incubated for 8 to 10 hrs by western blot analysis; assay type: functional, cell-based; conditions: dose 0.01-1 µM, time 8-10 hrs
[15] = system: ES-2; experiment: Inhibition of erastin-induced ferroptosis in human ES2 cells assessed as ERK protein expression at 0.01 to 1 uM incubated for 8 to 10 hrs by western blot analysis; assay type: functional, cell-based; conditions: dose 0.01-1 µM, time 8-10 hrs
[16] = system: ES2; experiment: Effect on ERK1/2 phoshorylation in erastin-stimulated human ES2 cells at 0.01 to 1 uM incubated for 8 to 10 hrs by western blot analysis; assay type: cell-based; conditions: dose 0.01-1 µM, time 8-10 hrs
[17] = system: ES-2; experiment: Inhibition of erastin-induced ferroptosis in human ES2 cells assessed as TFR1 protein expression at 0.01 to 1 uM incubated for 8 to 10 hrs by western blot analysis; assay type: functional, cell-based; conditions: dose 0.01-1 µM, time 8-10 hrs
[18] = system: ES-2; experiment: Inhibition of erastin-induced ferroptosis in human ES2 cells assessed as FPN protein expression at 0.01 to 1 uM incubated for 8 to 10 hrs by western blot analysis; assay type: functional, cell-based; conditions: dose 0.01-1 µM, time 8-10 hrs
[19] = system: ES-2; experiment: Inhibition of erastin-induced ferroptosis in human ES2 cells assessed as DMT1 protein expression at 0.01 to 1 uM incubated for 8 to 10 hrs by western blot analysis; assay type: functional, cell-based; conditions: dose 0.01-1 µM, time 8-10 hrs
[20] = system: ES-2; experiment: Inhibition of ferritinophagy in erastin-stimulated human ES2 cells assessed as increase in NCOA4 protein expression incubated for 8 to 10 hrs by western blot analysis; assay type: functional, cell-based; conditions: dose 0.01-1 µM, time 8-10 hrs
[21] = system: ES-2; experiment: Inhibition of ferritinophagy in erastin-stimulated human ES2 cells assessed as increase in ferritin protein expression incubated for 8 to 10 hrs by western blot analysis; assay type: functional, cell-based; conditions: dose 0.01-1 µM, time 8-10 hrs
[22] = system: ES-2; experiment: Inhibition of ferritinophagy in erastin-stimulated human ES2 cells assessed as increase in FTH1 gene expression at 0.01 to 1 uM by qRT-PCR analysis; assay type: functional, cell-based; conditions: dose 0.01-1 µM
[23] = system: ES-2; experiment: Inhibition of ferritinophagy in erastin-stimulated human ES2 cells assessed as increase in FTL gene expression at 0.01 to 1 uM by qRT-PCR analysis; assay type: functional, cell-based; conditions: dose 0.01-1 µM
[24] = system: ES-2; experiment: Inhibition of ferritinophagy in erastin-stimulated human ES2 cells assessed as increase in NCOA4 gene expression at 0.01 to 1 uM by qRT-PCR analysis; assay type: functional, cell-based; conditions: dose 0.01-1 µM
[25] = system: Mus musculus; experiment: Protection against APAP-induced acute liver injury C57BL/6 mouse model assessed as decrease in liver tissue damage at 3 mg/kg, ip administered 2 hrs prior to APAP injection and measured after 6 hrs by Hematoxylin-Eosin staining based analysis; assay type: functional, organism-based; conditions: time 8.0 hrs
[26] = system: Mus musculus; experiment: Protection against APAP-induced acute liver injury C57BL/6 mouse model assessed as decrease in serum AST content at 3 mg/kg, ip administered 2 hrs prior to APAP injection and measured after 6 hrs; assay type: functional, organism-based; conditions: time 8.0 hrs
[27] = system: Mus musculus; experiment: Protection against APAP-induced acute liver injury C57BL/6 mouse model assessed as decrease in serum ALT content at 3 mg/kg, ip administered 2 hrs prior to APAP injection and measured after 6 hrs; assay type: functional, organism-based; conditions: time 8.0 hrs
[28] = system: Mus musculus; experiment: Protection against APAP-induced acute liver injury C57BL/6 mouse model assessed as decrease in liver MDA content at 3 mg/kg, ip administered 2 hrs prior to APAP injection and measured after 6 hrs; assay type: functional, organism-based; conditions: time 8.0 hrs
[29] = Potency index, ratio of ferrostatin-1 EC50 to test compound EC50 for inhibition of erastin-induced ferroptosis in human ES2 cells; assay type: functional, ES-2

`c1ccc2nc3ccccc3nc2c1` [PHENAZINE] showed an EC50 [1] of 2820 nM.

Work on `c1cncc(-c2noc(-c3cccc4nc5ccccc5nc34)n2)c1` yielded an EC50 [1] of 240 nM.

`CC(C)(C)c1ccc(-c2noc(-c3cccc4nc5ccccc5nc34)n2)cc1` showed an EC50 [1] of 11 nM and an EC50 [2] of 13 nM.

`Fc1ccc(-c2noc(-c3cccc4nc5ccccc5nc34)n2)cc1F` showed an EC50 [1] of 9 nM and an EC50 [2] of 11 nM.

Work on `FC(F)(F)c1ccc(-c2noc(-c3cccc4nc5ccccc5nc34)n2)cc1` yielded an EC50 [1] of 3 nM and an EC50 [2] of 32 nM.

For `c1ccc(-c2noc(-c3cccc4nc5ccccc5nc34)n2)cc1`, the EC50 [1] was 4 nM.

With `c1ccc2nc3c(-c4nc(C5CC5)no4)cccc3nc2c1` the EC50 [1] was 214 nM.

In the case of `CC(C)(C)c1noc(-c2cccc3nc4ccccc4nc23)n1`, the EC50 [1] is reported as 604 nM.

With `FC(F)(F)c1cccc(-c2noc(-c3cccc4nc5ccccc5nc34)n2)c1` the EC50 [1] was 2 nM and the EC50 [2] was 13 nM.

Work on `c1ccc2nc3c(-c4nc(-n5cccn5)no4)cccc3nc2c1` yielded an EC50 [1] of 143 nM.

In the case of `c1cc(CN2CCCCC2)cc(-c2noc(-c3cccc4nc5ccccc5nc34)n2)c1`, the EC50 [1] is reported as 0.712 nM, the Activity [3] is reported as “inactive” and the Activity [4] is reported as “inactive”. For the same compound, the inhibition [5] was “inactive”, the inhibition [6] was “inactive” and the inhibition [7] was “inactive”. For the same compound, the inhibition [8] was “Active”, the inhibition [9] was “inactive” and the inhibition [10] was “Active”. The inhibition [11] was “inactive”, the inhibition [12] was “inactive” and the inhibition [13] was “inactive”. The inhibition [14] was “inactive”, the inhibition [15] was “inactive” and the Activity [16] was “inactive”. For the same compound, the inhibition [17] was “inactive”, the inhibition [18] was “inactive” and the inhibition [19] was “inactive”. For the same compound, the inhibition [20] was “Dose-dependent-effect”, the inhibition [21] was “Dose-dependent-effect” and the inhibition [22] was “Active”. For the same compound, the inhibition [23] was “Active”, the inhibition [24] was “Active” and the EC50 [2] was 0.925 nM. The Activity [25] was “Active”, the Activity [26] was “Active” and the Activity [27] was “Active”. The Activity [28] was “Active” and the “Ratio EC50” value [29] was 1000.

Compound `c1ccc2nc3c(-c4nc(-c5ccncc5)no4)cccc3nc2c1` has an EC50 [1] of 7 nM.

With `Cc1ccc(-c2noc(-c3cccc4nc5ccccc5nc34)n2)cc1` the EC50 [1] was 130 nM and the EC50 [2] was 2 nM.

With `Cc1cccc(-c2noc(-c3cccc4nc5ccccc5nc34)n2)c1` the EC50 [1] was 7 nM and the EC50 [2] was 4 nM.

Work on `Fc1cccc(-c2noc(-c3cccc4nc5ccccc5nc34)n2)c1` yielded an EC50 [1] of 2 nM and an EC50 [2] of 2 nM.
